{
  "source": "patent US12404285B2",
  "about": "“KRAS G12D proteolysis targeting chimeras” (PAQ Therapeutics Inc., priority 2022, dated 2025)",
  "target": "T1, KRAS (G12D)-HiBit in AsPc-1-KRAS (G12D)-HiBit-KI cell (Homo sapiens, UniProt P01116, G12D)",
  "T1 construct": "host or cells: AsPc-1-KRAS (G12D)-HiBit-KI cells (knock-in line)",
  "T1 sequence (P01116 1-188 isoform P01116-2 G12D)": "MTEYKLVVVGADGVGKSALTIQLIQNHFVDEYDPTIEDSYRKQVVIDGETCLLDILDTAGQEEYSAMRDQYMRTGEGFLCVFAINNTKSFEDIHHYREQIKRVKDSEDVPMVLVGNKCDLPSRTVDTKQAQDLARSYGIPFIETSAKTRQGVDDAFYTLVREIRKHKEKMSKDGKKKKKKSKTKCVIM",
  "experiment": "G12D HiBit assay",
  "type": "cell-based",
  "conditions": "24 hours compound treatment, absolute DC50, read-out: Average PHA DC50",
  "description": "Day 1. Prepared the culture medium for AsPc-1-KRAS (G12D)-HiBit-KI cell (Pharmaron) using RPMI 1640 medium (Gibco, 11875093) with 10% FBS (Gibco, 10099141C) and 1% Penicillin-Streptomycin Liquid (Solarbio, P1400). Cultivated cells in T-75 flasks in a cell culture incubator (Thermo, Model: 371) at 37° C., 5% CO2. Allowed cells to reach approximately 80% confluence before splitting. Rinsed cultivated cells in T-75 flasks with 5 mL PBS (Solarbio, P1020-500). Aspirated off PBS, added 1.5 mL trypsin (Invitrogen, #25300), and incubated at 37° C. for approximately 5 minutes or until the cells detached. Inactivated trypsin by adding excessive serum containing medium. Harvested the cells from flask into cell culture medium and counted the cell number. Seeded AsPc-1-KRAS (G12D)-HiBit-KI cell into 384-well plate (Corning, 3570) (cell density: 5×10^3 cells/well in 50 μL medium) in RPMI 1640 medium and incubated overnight at 37° C. and 5% CO2.\nDay 2. Test compounds were dissolved at 0.3 mM in DMSO (Solarbio, D8371) as stock solution. Transferred 45 μL of stock solution to a 384-well plate (Labcyte, 001-14555). Performed 3-fold, 10-points dilution via transferring 15 μL compound into 30 μL DMSO by using TECAN liquid handler (TECAN, Freedom EVO200). The compound plates were spin at room temperature at 1,000 RPM for 1 minute (Eppendorf, 5810R). Transferred 50 nL of diluted compounds from compound source plate into the cell plate by Echo (Labcyte, 550) to achieve final concentrations of 300 nM, 100 nM, 33.3 nM, 11.1 nM, 3.7 nM, 1.23 nM, 0.41 nM, 0.14 nM, 0.046 nM and 0.015 nM, then mixed the cell plate on a plate shaker (Yoning, WZ-4) for 15 seconds at 900 rpm. After compound treatment for 24 hours, removed the plate from incubators and equilibrated at room temperature for 15 minutes. Prepared the HiBit reagent (Promega, N3040) by mixing 10 mL of Nano-Glo®-HiBiT Lytic Buffer with 200 μL of Nano-Glo®-HiBiT Lytic Substrate and 100 μL of LgBiT Protein. Added 20 μL of HiBit reagent into each well of the cell plate and spun the plates at room temperature at 1,000 RPM for 1 minute. Then shook the plates at 600 RPM at room temperature for 20 minutes using a plate shaker (Yoning, WZ-4), and read the luminescence by EnVision (PerkinElmer, 2105-0020).\nThe inhibition activity was calculated using the following formula: HiBit-G12D level (%)=100%×[Luminescence(Sample)/Mean of Luminescence (HC)] where HC (high control) is obtained from cells treated with 0.1% DMSO only.\nAbsolute DC50 was calculated by fitting the curve using GraphPad Prism v8.0.2 (analyis 263): Y=Bottom+(100−Bottom)/(1+10^(Log AbsoluteIC50−X)*HillSlope+log((100−Bottom)/(50−Bottom)−1)))\nThe data are reported in Table 3, wherein “+++”=DC50 less than 100 nM, “++”=DC50 greater than or equal to 100 nM and less than 300 nM; “+”=DC50 greater than or equal to 300 nM.",
  "data": [
    {"smiles": "C#Cc1c(F)ccc2cccc(-c3ncc4c(N5CC6CCC(C5)N6)nc(OC[C@@]56CCCN5[C@H](COC(=O)N5CCC(N7CCN(Cc8ccc9c(c8)n(C)c(=O)n9C8CCC(=O)NC8=O)CC7)CC5)CC6)nc4c3F)c12", "note": "(stereo partly drawn) [Compound 56, [(3S,8S)-8-[[4-(3,8-Diazabicyclo[3.2.1]octan-3-yl)-7-(8-ethynyl-7-fluoro-1-naphthyl)-8-fluoro-pyrido[4,3-d]pyrimidin-2-yl]oxymethyl]-1,2,3,5,6,7-hexahydropyrrolizin-3-yl]methyl 4-[4-[[1-(2,6-dioxo-3-piperidyl)-3-methyl-2-oxo-benzimidazol-5-yl]methyl]piperazin-1-yl]piperidine-1-carboxylate]", "values": [
      {"measurement": "DC50", "result": "< 100", "unit": "nM"}
    ]},
    {"smiles": "C#Cc1c(F)ccc2cccc(-c3ncc4c(N5CC6CCC(C5)N6)nc(OC[C@@]56CCCN5[C@H](COC(=O)N5CCC(COC7CCN(Cc8ccc9c(c8)n(C)c(=O)n9C8CCC(=O)NC8=O)CC7)CC5)CC6)nc4c3F)c12", "note": "(stereo partly drawn) [Compound 68]", "values": [
      {"measurement": "DC50", "result": "< 100", "unit": "nM"}
    ]},
    {"smiles": "C#Cc1c(F)ccc2cccc(-c3ncc4c(N5CC6CCC(C5)N6)nc(OC[C@@]56CCCN5[C@H](COC(=O)N5CCC(OC7CCN(c8ccc9c(c8)n(C)c(=O)n9C8CCC(=O)NC8=O)CC7)CC5)CC6)nc4c3F)c12", "note": "(stereo partly drawn) [Compound 98, [(3S,8S)-8-[[4-(3,8-Diazabicyclo[3.2.1]octan-3-yl)-7-(8-ethynyl-7-fluoro-1-naphthyl)-8-fluoro-pyrido[4,3-d]pyrimidin-2-yl]oxymethyl]-1,2,3,5,6,7-hexahydropyrrolizin-3-yl]methyl 4-[[1-[1-(2,6-dioxo-3-piperidyl)-3-methyl-2-oxo-benzimidazol-5-yl]-4-piperidyl]oxy]piperidine-1-carboxylate]", "values": [
      {"measurement": "DC50", "result": "< 100", "unit": "nM"}
    ]},
    {"smiles": "C#Cc1c(F)ccc2cccc(-c3ncc4c(N5CC6CCC(C5)N6)nc(OC[C@@]56CCCN5[C@H](COC(=O)N5CCC(OCCc7ccc8c(c7)n(C)c(=O)n8C7CCC(=O)NC7=O)CC5)CC6)nc4c3F)c12", "note": "(stereo partly drawn) [Compound 133, [(3S,8S)-8-[[4-(3,8-Diazabicyclo[3.2.1]octan-3-yl)-7-(8-ethynyl-7-fluoro-1-naphthyl)-8-fluoro-pyrido[4,3-d]pyrimidin-2-yl]oxymethyl]-1,2,3,5,6,7-hexahydropyrrolizin-3-yl]methyl 4-[2-[1-(2,6-dioxo-3-piperidyl)-3-methyl-2-oxo-benzimidazol-5-yl]ethoxy]piperidine-1-carboxylate]", "values": [
      {"measurement": "DC50", "result": "≥ 300", "unit": "nM"}
    ]},
    {"smiles": "C#Cc1c(F)ccc2cccc(-c3ncc4c(N5C[C@H]6CC[C@@H](C5)N6)nc(OC[C@@]56CCCN5[C@H](COC(=O)N5CCC(CC7CCN(Cc8cccc9c8n(C)c(=O)n9C8CCC(=O)NC8=O)CC7)CC5)CC6)nc4c3F)c12", "note": "(stereo partly drawn) [Compound 132, ((3S,7aS)-7a-(((4-((1R,5S)-3,8-Diazabicyclo[3.2.1]octan-3-yl)-7-(8-ethynyl-7-fluoronaphthalen-1-yl)-8-fluoropyrido[4,3-d]pyrimidin-2-yl)oxy)methyl)hexahydro-1H-pyrrolizin-3-yl)methyl4-((1-((1-(2,6-dioxopiperidin-3-yl)-3-methyl-2-oxo-2,3-dihydro-1H-benzo[d]imidazol-4-yl)methyl)piperidin-4-yl)methyl)piperidine-1-carboxylate]", "values": [
      {"measurement": "DC50", "result": "< 100", "unit": "nM"}
    ]},
    {"smiles": "C#Cc1c(F)ccc2cccc(-c3ncc4c(N5CC6CCC(C5)N6)nc(OC[C@]56CCCN5[C@@H](COC(=O)N5CCC(CC7CCN(Cc8cccc9c8n(C)c(=O)n9C8CCC(=O)NC8=O)CC7)CC5)CC6)nc4c3F)c12", "note": "(stereo partly drawn) [Compound 77]", "values": [
      {"measurement": "DC50", "result": "100 to 300", "unit": "nM"}
    ]},
    {"smiles": "C#Cc1c(F)ccc2cccc(-c3ncc4c(N5CC6CCC(C5)N6)nc(OC[C@@]56CCCN5[C@H](COC(=O)N5CCC(OC7CN(Cc8cccc9c8n(C)c(=O)n9C8CCC(=O)NC8=O)C7)CC5)CC6)nc4c3F)c12", "note": "(stereo partly drawn) [Compound 54, [(3S,8S)-8-[[4-(3,8-Diazabicyclo[3.2.1]octan-3-yl)-7-(8-ethynyl-7-fluoro-1-naphthyl)-8-fluoro-pyrido[4,3-d]pyrimidin-2-yl]oxymethyl]-1,2,3,5,6,7-hexahydropyrrolizin-3-yl]methyl 4-[1-[[1-(2,6-dioxo-3-piperidyl)-3-methyl-2-oxo-benzimidazol-4-yl]methyl]azetidin-3-yl]oxypiperidine-1-carboxylate]", "values": [
      {"measurement": "DC50", "result": "< 100", "unit": "nM"}
    ]},
    {"smiles": "C#Cc1c(F)ccc2cccc(-c3ncc4c(N5CC6CCC(C5)N6)nc(OC[C@@]56CCCN5[C@H](COC(=O)N(C)CCC5CCN(Cc7cccc8c7n(C)c(=O)n8C7CCC(=O)NC7=O)CC5)CC6)nc4c3F)c12", "note": "(stereo partly drawn) [Compound 134, [(3S,8S)-8-[[4-(3,8-diazabicyclo[3.2.1]octan-3-yl)-7-(8-ethynyl-7-fluoro-1-naphthyl)-8-fluoro-pyrido[4,3-d]pyrimidin-2-yl]oxymethyl]-1,2,3,5,6,7-hexahydropyrrolizin-3-yl]methyl N-[2-[1-[[1-(2,6-dioxo-3-piperidyl)-3-methyl-2-oxo-benzimidazol-4-yl]methyl]-4-piperidyl]ethyl]-N-methyl-carbamate]", "values": [
      {"measurement": "DC50", "result": "< 100", "unit": "nM"}
    ]},
    {"smiles": "C#Cc1c(F)ccc2cccc(-c3ncc4c(N5CC6CCC(C5)N6)nc(OC[C@@]56CCCN5[C@H](COC(=O)N5CCC(CCN7CCN(Cc8ccc9c(c8)n(C)c(=O)n9C8CCC(=O)NC8=O)CC7)CC5)CC6)nc4c3F)c12", "note": "(stereo partly drawn) [Compound 87, [(3S,8S)-8-[[4-(3,8-Diazabicyclo[3.2.1]octan-3-yl)-7-(8-ethynyl-7-fluoro-1-naphthyl)-8-fluoro-pyrido[4,3-d]pyrimidin-2-yl]oxymethyl]-1,2,3,5,6,7-hexahydropyrrolizin-3-yl]methyl 4-[2-[4-[[1-(2,6-dioxo-3-piperidyl)-3-methyl-2-oxo-benzimidazol-5-yl]methyl]piperazin-1-yl]ethyl]piperidine-1-carboxylate]", "values": [
      {"measurement": "DC50", "result": "< 100", "unit": "nM"}
    ]},
    {"smiles": "C#Cc1c(F)ccc2cccc(-c3ncc4c(N5CC6CCC(C5)N6)nc(OC[C@@]56CCCN5[C@H](COC(=O)N5CC[C@@H](CN7CCC(c8ccc9c(c8)n(C)c(=O)n9C8CCC(=O)NC8=O)CC7)C5)CC6)nc4c3F)c12", "note": "(stereo partly drawn) [Compound 81, [(3S,8S)-8-[[4-(3,8-Diazabicyclo[3.2.1]octan-3-yl)-7-(8-ethynyl-7-fluoro-1-naphthyl)-8-fluoro-pyrido[4,3-d]pyrimidin-2-yl]oxymethyl]-1,2,3,5,6,7-hexahydropyrrolizin-3-yl]methyl (3S)-3-[[4-[1-(2,6-dioxo-3-piperidyl)-3-methyl-2-oxo-benzimidazol-5-yl]-1-piperidyl]methyl]pyrrolidine-1-carboxylate]", "values": [
      {"measurement": "DC50", "result": "< 100", "unit": "nM"}
    ]},
    {"smiles": "C#Cc1c(F)ccc2cccc(-c3ncc4c(N5CC6CCC(C5)N6)nc(OC[C@@]56CCCN5[C@H](COC(=O)N5CCC(OCCCCCc7ccc8c(c7)n(C)c(=O)n8C7CCC(=O)NC7=O)CC5)CC6)nc4c3F)c12", "note": "(stereo partly drawn) [Compound 120, [(3S,8S)-8-[[4-(3,8-Diazabicyclo[3.2.1]octan-3-yl)-7-(8-ethynyl-7-fluoro-1-naphthyl)-8-fluoro-pyrido[4,3-d]pyrimidin-2-yl]oxymethyl]-1,2,3,5,6,7-hexahydropyrrolizin-3-yl]methyl 4-[5-[1-(2,6-dioxo-3-piperidyl)-3-methyl-2-oxo-benzimidazol-5-yl]pentoxy]piperidine-1-carboxylate]", "values": [
      {"measurement": "DC50", "result": "< 100", "unit": "nM"}
    ]},
    {"smiles": "C#Cc1c(F)ccc2cccc(-c3ncc4c(N5CC6CCC(C5)N6)nc(OC[C@@]56CCCN5[C@H](COC(=O)N5CCC(OCc7cccc8c7n(C)c(=O)n8C7CCC(=O)NC7=O)CC5)CC6)nc4c3F)c12", "note": "(stereo partly drawn) [Compound 37, [(3S,8S)-8-[[4-(3,8-Diazabicyclo[3.2.1]octan-3-yl)-7-(8-ethynyl-7-fluoro-1-naphthyl)-8-fluoro-pyrido[4,3-d]pyrimidin-2-yl]oxymethyl]-1,2,3,5,6,7-hexahydropyrrolizin-3-yl]methyl4-[[1-(2,6-dioxo-3-piperidyl)-3-methyl-2-oxo-benzimidazol-4-yl]methoxy]piperidine-1-carboxylate]", "values": [
      {"measurement": "DC50", "result": "100 to 300", "unit": "nM"}
    ]}
  ]
}
